Data reported in ChEMBL document CHEMBL1201862, “PubChem BioAssay data set” (2004).
Values belong to the molecule of their own block, whether it stands above or below them. Active and inactive are the calls of the source.

Experiments:
[1] = biological target: SUMO E1/E2 (Homo sapiens, UniProt P63279+Q9UBE0+Q9UBT2); assay: SAR analysis of SUMOylation using HTRF in an in-Vitro dose response assay. [Related pubchem assays (depositor defined):AID2006, AID2011, AID2018, AID2069, AID2658]; format: functional
[2] = biological target: Glyceraldehyde-3-phosphate dehydrogenase (Homo sapiens, UniProt P04406)
[3] = biological target: Eukaryotic translation initiation factor 4E (Mus musculus, UniProt P63073); assay: blockers of eIF4G binding by eIF4E – biochemical, TR-FRET, dose response (AID 855); format: functional;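 note: potency for disrupting eIF4E binding to eIF4GI seen as loss of FRET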
[4] = biological target: T1, Oxysterols receptor LXR-beta (Homo sapiens, UniProt P55055); format: functional, cell-based;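 note: Cell-based luminescence dose-response assay of agonist activity at LXR, run as a confirmatory counterscreen to a daf-12 agonist screen; HEK293 cells with Gal4-LXR fusion and GAL4-driven luciferase reporter; agonist potency from rising luciferase signal of a Gal4-LXR reporter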
T1 sequence (P55055 whole entry): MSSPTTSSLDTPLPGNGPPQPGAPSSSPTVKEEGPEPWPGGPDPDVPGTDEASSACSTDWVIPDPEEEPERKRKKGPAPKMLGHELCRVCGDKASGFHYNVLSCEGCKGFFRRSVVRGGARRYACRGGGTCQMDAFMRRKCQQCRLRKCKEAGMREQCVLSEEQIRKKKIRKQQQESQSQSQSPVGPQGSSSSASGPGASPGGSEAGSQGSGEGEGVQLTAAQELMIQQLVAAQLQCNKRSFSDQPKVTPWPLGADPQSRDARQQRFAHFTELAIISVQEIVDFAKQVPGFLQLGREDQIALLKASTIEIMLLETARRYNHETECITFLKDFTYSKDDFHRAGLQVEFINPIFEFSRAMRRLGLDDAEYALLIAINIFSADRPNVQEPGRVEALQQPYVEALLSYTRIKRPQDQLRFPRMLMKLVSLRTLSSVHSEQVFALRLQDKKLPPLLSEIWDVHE

[5] = biological target: T2, Alkaline phosphatase, tissue-nonspecific isozyme (Homo sapiens, UniProt P05186); assay: inhibition of tissue-nonspecific alkaline phosphatase – biochemical, dose response (AID 488882); format: functional
T2 sequence (P05186 whole entry): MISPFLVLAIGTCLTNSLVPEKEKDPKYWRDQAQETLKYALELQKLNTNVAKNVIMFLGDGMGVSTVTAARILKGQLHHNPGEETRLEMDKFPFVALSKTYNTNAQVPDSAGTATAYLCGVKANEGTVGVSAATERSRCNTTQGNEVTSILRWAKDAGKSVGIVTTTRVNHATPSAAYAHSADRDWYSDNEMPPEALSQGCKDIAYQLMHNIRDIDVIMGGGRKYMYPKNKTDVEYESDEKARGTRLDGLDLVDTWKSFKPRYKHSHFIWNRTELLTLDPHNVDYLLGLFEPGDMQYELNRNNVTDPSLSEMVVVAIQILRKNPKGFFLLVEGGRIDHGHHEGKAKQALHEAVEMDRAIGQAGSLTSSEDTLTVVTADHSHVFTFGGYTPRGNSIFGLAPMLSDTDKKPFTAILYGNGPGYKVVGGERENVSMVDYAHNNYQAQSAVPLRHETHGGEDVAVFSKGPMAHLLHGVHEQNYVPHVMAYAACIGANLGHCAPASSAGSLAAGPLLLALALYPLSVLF

[6] = biological target: Intestinal-type alkaline phosphatase (Homo sapiens, UniProt P09923); assay: inhibition of human intestinal alkaline phosphatase – biochemical, luminescent, uHTS hits, set 2, dose response (AID 488793); format: functional
[7] = biological target: MAP kinase-activated protein kinase 3 (Homo sapiens, UniProt Q16644); format: functional;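 note: value comes from a kinome-wide profiling panel in which MAPKAPK3 is one of the panel members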
[8] = biological target: Casein kinase I isoform delta (Homo sapiens, UniProt P48730); format: functional;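 note: measured as one member (CSNK1D) of a kinome panel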
[9] = biological target: Vascular endothelial growth factor receptor 1 (Homo sapiens, UniProt P17948); format: functional;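 note: measured within a kinome-wide profiling panel, FLT1 as the panel member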
[10] = biological target: Mitogen-activated protein kinase 9 (Homo sapiens, UniProt P45984); format: functional;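 note: value from a kinome panel profiling assay, MAPK9 panel entry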
[11] = biological target: Mast/stem cell growth factor receptor Kit (Homo sapiens, UniProt P10721); format: functional;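 note: KIT entry within a kinase panel assay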
[12] = biological target: Proto-oncogene tyrosine-protein kinase Src (Homo sapiens, UniProt P12931); format: functional;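 note: SRC entry within a kinome-wide kinase profiling panel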
[13] = biological target: Protein-tyrosine kinase 2-beta (Homo sapiens, UniProt Q14289); format: functional
[14] = biological target: Ribosomal protein S6 kinase beta-1 (Homo sapiens, UniProt P23443); format: functional;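 note: measured as one member of a kinome-wide profiling panel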
[15] = biological target: Tyrosine-protein kinase Fyn (Homo sapiens, UniProt P06241); format: functional
[16] = biological target: SRSF protein kinase 1 (Homo sapiens, UniProt Q96SB4); format: functional;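 note: measured as one member of a kinome-wide kinase profiling panel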
[17] = biological target: Eukaryotic elongation factor 2 kinase (Homo sapiens, UniProt O00418); format: functional
[18] = biological target: Serine/threonine-protein kinase TAO1 (Homo sapiens, UniProt Q7L7X3); format: functional
[19] = biological target: Homeodomain-interacting protein kinase 4 (Homo sapiens, UniProt Q8NE63); format: functional
[20] = biological target: Lymphokine-activated killer T-cell-originated protein kinase (Homo sapiens, UniProt Q96KB5); format: functional;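 note: value comes from a kinase panel screen in which TOPK was one of the panel members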
[21] = biological target: Aurora kinase A (Homo sapiens, UniProt O14965); format: functional;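 note: value from the Navigating the Kinome kinase panel profiling, panel entry STK6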
[22] = biological target: Serine/threonine-protein kinase PLK3 (Homo sapiens, UniProt Q9H4B4); format: functional
[23] = biological target: RAC-gamma serine/threonine-protein kinase (Homo sapiens, UniProt Q9Y243); format: functional
[24] = biological target: Serine/threonine-protein kinase 17A (Homo sapiens, UniProt Q9UEE5); format: functional
[25] = biological target: Serine/threonine-protein kinase Chk2 (Homo sapiens, UniProt O96017); format: functional;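 note: CHEK2 entry within a kinome-wide screening panel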
Chain of Serine/threonine-protein kinase Chk2 (O96017 whole entry): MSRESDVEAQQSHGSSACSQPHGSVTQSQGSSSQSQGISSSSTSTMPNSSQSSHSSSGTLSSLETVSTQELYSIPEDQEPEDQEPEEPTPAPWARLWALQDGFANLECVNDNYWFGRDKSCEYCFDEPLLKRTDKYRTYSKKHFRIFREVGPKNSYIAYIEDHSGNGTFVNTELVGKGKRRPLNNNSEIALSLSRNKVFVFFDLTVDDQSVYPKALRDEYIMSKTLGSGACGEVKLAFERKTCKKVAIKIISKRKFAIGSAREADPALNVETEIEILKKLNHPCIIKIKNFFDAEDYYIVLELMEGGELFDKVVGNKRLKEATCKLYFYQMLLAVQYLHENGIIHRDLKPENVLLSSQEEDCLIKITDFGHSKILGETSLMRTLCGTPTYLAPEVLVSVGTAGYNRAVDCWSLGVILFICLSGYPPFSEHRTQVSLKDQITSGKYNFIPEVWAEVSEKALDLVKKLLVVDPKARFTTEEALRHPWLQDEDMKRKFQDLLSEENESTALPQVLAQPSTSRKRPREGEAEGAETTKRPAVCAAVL

Chain of RAC-gamma serine/threonine-protein kinase (Q9Y243 whole entry): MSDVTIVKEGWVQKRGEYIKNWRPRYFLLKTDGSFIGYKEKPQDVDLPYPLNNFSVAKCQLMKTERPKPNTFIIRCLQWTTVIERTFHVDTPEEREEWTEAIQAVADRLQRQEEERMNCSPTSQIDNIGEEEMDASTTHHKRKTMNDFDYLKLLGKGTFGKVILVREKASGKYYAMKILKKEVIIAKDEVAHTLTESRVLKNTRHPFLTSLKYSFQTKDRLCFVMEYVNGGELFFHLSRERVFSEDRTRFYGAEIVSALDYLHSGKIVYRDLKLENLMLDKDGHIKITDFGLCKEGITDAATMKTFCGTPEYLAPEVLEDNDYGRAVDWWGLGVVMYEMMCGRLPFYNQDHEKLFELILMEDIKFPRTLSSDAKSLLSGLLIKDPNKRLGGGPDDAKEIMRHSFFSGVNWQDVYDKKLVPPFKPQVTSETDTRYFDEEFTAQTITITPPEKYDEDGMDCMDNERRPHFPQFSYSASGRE
Chain of Serine/threonine-protein kinase TAO1 (Q7L7X3 whole entry): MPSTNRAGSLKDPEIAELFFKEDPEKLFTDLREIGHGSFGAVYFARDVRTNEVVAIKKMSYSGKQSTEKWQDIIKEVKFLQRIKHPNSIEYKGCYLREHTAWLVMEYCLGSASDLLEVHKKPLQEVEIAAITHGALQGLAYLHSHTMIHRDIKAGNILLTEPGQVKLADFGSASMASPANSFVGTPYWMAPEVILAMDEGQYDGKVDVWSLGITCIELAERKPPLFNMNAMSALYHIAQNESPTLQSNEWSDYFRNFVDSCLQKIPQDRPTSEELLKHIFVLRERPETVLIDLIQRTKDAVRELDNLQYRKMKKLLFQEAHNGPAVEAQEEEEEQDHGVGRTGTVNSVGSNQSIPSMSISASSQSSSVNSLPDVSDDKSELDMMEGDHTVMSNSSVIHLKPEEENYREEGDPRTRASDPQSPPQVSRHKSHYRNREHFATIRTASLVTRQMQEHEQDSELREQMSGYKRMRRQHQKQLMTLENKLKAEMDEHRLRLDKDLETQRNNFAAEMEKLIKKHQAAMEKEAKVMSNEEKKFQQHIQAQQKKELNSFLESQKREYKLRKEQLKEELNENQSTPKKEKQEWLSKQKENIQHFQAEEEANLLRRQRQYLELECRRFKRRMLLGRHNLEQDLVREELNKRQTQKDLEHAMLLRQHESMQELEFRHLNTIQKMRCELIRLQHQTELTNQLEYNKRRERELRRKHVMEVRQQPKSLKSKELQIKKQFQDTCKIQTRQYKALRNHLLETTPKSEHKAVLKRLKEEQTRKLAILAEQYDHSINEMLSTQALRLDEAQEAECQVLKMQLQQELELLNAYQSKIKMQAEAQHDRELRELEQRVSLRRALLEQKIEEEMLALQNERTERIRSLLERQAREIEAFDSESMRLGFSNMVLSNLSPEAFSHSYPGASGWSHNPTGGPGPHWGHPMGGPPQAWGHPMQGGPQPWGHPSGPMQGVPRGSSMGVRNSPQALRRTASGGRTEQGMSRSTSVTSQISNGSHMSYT
Chain of Lymphokine-activated killer T-cell-originated protein kinase (Q96KB5 whole entry): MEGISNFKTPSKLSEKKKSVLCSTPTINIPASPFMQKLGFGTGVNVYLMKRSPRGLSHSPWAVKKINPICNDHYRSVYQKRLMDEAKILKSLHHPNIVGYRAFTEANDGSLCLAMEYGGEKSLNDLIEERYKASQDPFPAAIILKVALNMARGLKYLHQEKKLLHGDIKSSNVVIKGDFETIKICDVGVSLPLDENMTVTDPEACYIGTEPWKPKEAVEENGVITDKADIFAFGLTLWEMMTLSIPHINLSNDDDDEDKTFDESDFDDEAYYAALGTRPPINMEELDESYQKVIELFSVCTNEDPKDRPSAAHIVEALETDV
Chain of Serine/threonine-protein kinase PLK3 (Q9H4B4 whole entry): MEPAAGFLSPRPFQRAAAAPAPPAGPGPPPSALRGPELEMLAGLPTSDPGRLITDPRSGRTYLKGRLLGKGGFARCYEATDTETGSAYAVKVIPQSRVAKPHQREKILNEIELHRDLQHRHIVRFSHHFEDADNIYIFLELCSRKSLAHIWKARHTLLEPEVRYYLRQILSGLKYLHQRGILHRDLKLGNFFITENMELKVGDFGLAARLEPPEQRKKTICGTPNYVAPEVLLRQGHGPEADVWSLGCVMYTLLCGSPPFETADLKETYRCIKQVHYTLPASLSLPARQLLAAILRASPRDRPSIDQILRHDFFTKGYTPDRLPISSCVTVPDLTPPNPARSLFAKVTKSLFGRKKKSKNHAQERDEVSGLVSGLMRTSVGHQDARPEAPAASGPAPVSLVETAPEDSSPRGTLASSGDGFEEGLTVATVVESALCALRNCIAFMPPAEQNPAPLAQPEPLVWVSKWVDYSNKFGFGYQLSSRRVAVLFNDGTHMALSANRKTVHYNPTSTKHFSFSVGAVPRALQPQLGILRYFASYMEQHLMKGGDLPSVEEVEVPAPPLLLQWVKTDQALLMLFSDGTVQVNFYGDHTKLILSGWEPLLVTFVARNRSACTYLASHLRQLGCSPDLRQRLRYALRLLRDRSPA
Chain of Casein kinase I isoform delta (P48730 whole entry, canonical isoform): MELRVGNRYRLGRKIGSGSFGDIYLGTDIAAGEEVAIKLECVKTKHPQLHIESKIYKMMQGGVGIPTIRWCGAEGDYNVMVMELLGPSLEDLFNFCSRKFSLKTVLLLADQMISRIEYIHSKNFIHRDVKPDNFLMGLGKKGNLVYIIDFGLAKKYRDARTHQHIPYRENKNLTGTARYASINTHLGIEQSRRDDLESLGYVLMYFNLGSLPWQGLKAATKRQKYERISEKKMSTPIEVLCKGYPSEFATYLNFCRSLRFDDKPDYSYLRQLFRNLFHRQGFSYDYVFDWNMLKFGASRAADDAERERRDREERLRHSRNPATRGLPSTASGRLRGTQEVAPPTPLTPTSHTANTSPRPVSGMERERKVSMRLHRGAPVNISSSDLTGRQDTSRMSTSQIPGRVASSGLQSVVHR
Chain of Eukaryotic translation initiation factor 4E (P63073 whole entry, the tested form may be a part): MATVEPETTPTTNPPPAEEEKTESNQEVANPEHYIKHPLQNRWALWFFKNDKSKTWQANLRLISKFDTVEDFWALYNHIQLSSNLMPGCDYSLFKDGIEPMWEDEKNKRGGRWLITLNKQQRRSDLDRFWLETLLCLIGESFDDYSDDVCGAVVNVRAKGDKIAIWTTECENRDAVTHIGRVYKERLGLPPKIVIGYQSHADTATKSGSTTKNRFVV
Chain of Eukaryotic elongation factor 2 kinase (O00418 whole entry): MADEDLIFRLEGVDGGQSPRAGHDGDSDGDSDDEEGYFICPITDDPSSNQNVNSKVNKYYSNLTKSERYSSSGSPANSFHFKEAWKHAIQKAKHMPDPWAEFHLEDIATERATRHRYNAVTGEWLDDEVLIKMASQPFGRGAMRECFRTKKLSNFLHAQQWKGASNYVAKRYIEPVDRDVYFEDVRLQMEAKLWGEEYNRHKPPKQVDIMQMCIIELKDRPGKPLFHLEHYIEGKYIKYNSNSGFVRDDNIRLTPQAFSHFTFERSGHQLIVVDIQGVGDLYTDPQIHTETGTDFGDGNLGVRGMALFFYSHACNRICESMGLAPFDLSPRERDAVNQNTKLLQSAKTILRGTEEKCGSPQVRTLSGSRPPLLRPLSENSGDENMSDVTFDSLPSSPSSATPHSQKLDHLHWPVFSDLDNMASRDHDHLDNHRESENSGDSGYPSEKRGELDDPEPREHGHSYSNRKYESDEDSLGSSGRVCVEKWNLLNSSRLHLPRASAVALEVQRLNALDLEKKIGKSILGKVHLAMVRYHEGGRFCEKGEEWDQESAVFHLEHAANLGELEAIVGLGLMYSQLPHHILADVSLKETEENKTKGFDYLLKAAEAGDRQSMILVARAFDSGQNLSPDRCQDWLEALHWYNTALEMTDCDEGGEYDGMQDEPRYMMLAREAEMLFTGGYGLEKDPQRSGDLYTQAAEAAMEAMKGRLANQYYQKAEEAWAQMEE
Chain of Aurora kinase A (O14965 whole entry): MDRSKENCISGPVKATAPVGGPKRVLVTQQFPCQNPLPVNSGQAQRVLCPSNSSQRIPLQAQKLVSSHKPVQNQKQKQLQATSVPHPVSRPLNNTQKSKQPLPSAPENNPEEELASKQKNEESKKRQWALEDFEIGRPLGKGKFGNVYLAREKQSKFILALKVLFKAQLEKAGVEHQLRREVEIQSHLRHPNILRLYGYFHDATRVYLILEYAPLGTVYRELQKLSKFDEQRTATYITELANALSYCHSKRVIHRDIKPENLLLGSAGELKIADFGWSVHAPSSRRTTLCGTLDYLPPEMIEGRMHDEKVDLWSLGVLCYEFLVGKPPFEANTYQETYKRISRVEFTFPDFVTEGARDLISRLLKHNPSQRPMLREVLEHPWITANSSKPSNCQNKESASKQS

Compound: CC(=O)NC1C(=O)N(CCN2CCOCC2)c2ccc(F)cc21 (stereo unspecified)
- IC50 [1]: 13.4 µM (active)

Compound: O=C(O)C1Nc2c(O)cc(Cl)c([N+](=O)[O-])c2C2C=CCC12 (stereo unspecified)
- IC50 [2]: 37.8 µM (active)
- IC50 [3]: 5.21 µM (active)

Compound: Clc1ccc2nc(-c3ccc(Br)s3)cn2c1
- EC50 [4]: > 67.5 µM (inactive)

Compound: Oc1ccc(N=Nc2c(O)ccc3ccccc23)cc1
- IC50 [5]: 16.5 µM (active)
- IC50 [6]: 15.5 µM (active)

- Ki [7]: > 10 µM (inactive)
- Ki [8]: 0.0316 µM (active)
- Ki [9]: > 0.398 µM (inactive)
- Ki [10]: 3.98 µM (active)
- Ki [11]: > 1.26 µM (inactive)
- Ki [12]: > 2 µM (inactive)
- Ki [13]: 0.501 µM (active)
- Ki [14]: 0.0794 µM (active)
- Ki [15]: > 0.794 µM (inactive)
- Ki [16]: > 5.01 µM (inactive)
- Ki [17]: > 3.98 µM (inactive)
- Ki [18]: 0.316 µM (active)
- Ki [19]: 1.58 µM (active)
- Ki [21]: 0.631 µM (active)
- Ki [22]: > 7.94 µM (inactive)
- Ki [23]: 0.00501 µM (active)
- pKi [23]: 8.3
- Ki [24]: 0.501 µM (active)
- Ki [25]: 0.631 µM (active)
Compound: Cc1n[nH]c2ccc(-c3cncc(OCC(N)Cc4cccc(Cl)c4)c3)cc12 (stereo unspecified)
- Ki [20]: 2.51 µM (active)
